This passage reports IC50 and EC50 results from ChEMBL document CHEMBL2375212, “Synthesis and evaluation of novel marine bromopyrrole alkaloid-based hybrids as anticancer agents” (Eur J Med Chem, 2013).

The test system of one experiment is Caco-2. Description: Cytotoxicity against human Caco2 cells compound treated for 6 hrs measured 48 hrs post washout by MTT assay. It is filed as functional, cell-based. (In general: Tetrazolium dyes change colour on reduction, which living cells bring about.)
The subject of experiment [1] is MCF7. The experiment can be described thus: Cytotoxicity against human MCF7 cells compound treated for 6 hrs measured 48 hrs post washout by MTT assay. The format is functional, cell-based.
The subject of another experiment is WRL68. Description: Cytotoxicity against human WRL68 cells compound treated for 6 hrs measured 48 hrs post washout by MTT assay. The format is functional, cell-based.
The subject of the next experiment is PA-1. Description: Cytotoxicity against human PA1 cells compound treated for 6 hrs measured 48 hrs post washout by MTT assay. It is filed as functional, cell-based.
A short description of experiment [2]: Cytotoxicity against human KB403 cells compound treated for 6 hrs measured 48 hrs post washout by MTT assay. The format is functional, cell-based.
The test system of another experiment is COLO 205. Description: Cytotoxicity against human COLO205 cells by MTT assay. The format is functional, cell-based.
A further experiment concerns HepG2. The experiment can be described thus: Cytotoxicity against human HepG2 cells by MTT assay. The format is functional, cell-based.
Experiment [3] has as its target Dual specificity mitogen-activated protein kinase kinase 1 (Homo sapiens, UniProt Q02750). The experiment can be described thus: Inhibition of MEK1 (unknown origin).
The test system of experiment [4] is MCF7. The experiment can be described thus: Cytotoxicity against human MCF7 cells by MTT assay. The format is functional, cell-based.
A short description of experiment [5]: Cytotoxicity against mouse SVEC cells by MTT assay. The format is functional, cell-based.
For another experiment, the system named is P388. Description: Cytotoxicity against mouse P388 cells by MTT assay. It is filed as functional. To be noted: read-out: ED50 (the source's name).

pIC50: −log10 of the molar value. ≈ marks a conversion by molar mass, not a printed value. Bounds are passed on as bounds.

Chain of Dual specificity mitogen-activated protein kinase kinase 1 (Q02750 whole entry): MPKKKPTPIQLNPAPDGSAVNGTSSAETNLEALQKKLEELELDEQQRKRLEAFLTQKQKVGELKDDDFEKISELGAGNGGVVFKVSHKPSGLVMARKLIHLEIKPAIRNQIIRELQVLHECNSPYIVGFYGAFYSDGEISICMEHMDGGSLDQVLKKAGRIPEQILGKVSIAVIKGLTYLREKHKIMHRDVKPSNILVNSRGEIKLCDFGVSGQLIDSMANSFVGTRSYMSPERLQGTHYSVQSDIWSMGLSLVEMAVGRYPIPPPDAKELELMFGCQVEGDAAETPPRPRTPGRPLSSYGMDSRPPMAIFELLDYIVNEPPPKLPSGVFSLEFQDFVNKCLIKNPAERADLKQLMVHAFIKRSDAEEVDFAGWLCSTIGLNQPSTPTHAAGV

Broadly, the pIC50 is the IC50 on a negative log10 scale, so that one unit is a factor of ten. A lower pIC50 goes with a high IC50. As for `Cn1c(-c2cc(=O)c3ccccc3o2)cc(Br)c1Br`, the pIC50 with Caco-2 was at most 4.00; in the experiment on MCF7 [1], at most 4.00; with WRL68, at most 4.00; in the experiment on PA-1 it was 6.22; in experiment [2], 6.17.

Take `Cn1c(/C=C/C(=O)c2ccc(O)cc2)cc(Br)c1Br`: the pIC50 in the experiment on Caco-2 is 5.22; with MCF7 [1], 5.51; in the experiment with WRL68, 5.72; with PA-1, 5.55; in experiment [2] it was at most 4.00.

Consider `COc1ccc(OC)c(C(=O)/C=C/c2cc(Br)c(Br)[nH]2)c1`, for which the pIC50 is at most 4.00 in the experiment with Caco-2; 6.66 with MCF7 [1]; 4.91 in the experiment with WRL68; 6.38 in the experiment on PA-1; at most 4.00 in [2].

In the experiment with COLO 205, `c1ccc(-c2cc(COc3ccccc3-c3nc4ccccc4s3)on2)cc1` showed a negative logarithm of the IC50 (pIC50) of 4.85.

For `CC(=O)O[C@H]1C(=O)[C@@]2(C)[C@H]([C@H](OC(=O)c3ccccc3)[C@]3(O)C[C@H](OC(=O)[C@H](O)[C@@H](NC(=O)c4ccccc4)c4ccccc4)C(C)=C1C3(C)C)[C@]1(OC(C)=O)CO[C@@H]1C[C@@H]2O` [PACLITAXEL], the results for the pIC50 (in the experiment with PA-1; in experiment [2]) were 8.10 and 9.00, respectively.

On to `O=C(/C=C/c1cc(Br)c(Br)[nH]1)c1ccc[nH]1`, for which the pIC50 in the experiment with Caco-2 was at most 4.00; with MCF7 [1], 7.14; in the experiment on WRL68 it was at most 4.00; in the experiment on PA-1, 6.30; in experiment [2], at most 4.00.

With `O=c1cc(-c2cc(Br)c(Br)[nH]2)oc2ccccc12`, the pIC50 was at most 4.00 in the experiment with Caco-2; at most 4.00 in the experiment with MCF7 [1]; at most 4.00 in the experiment with WRL68; 6.39 in the experiment on PA-1; 5.89 in [2].

Regarding `Brc1cc(-c2cc(-c3ccc[nH]3)no2)[nH]c1Br`, the pIC50 in the experiment with Caco-2 was at most 4.00; in the experiment with MCF7 [1] it was at most 4.00; in the experiment on WRL68 it was at most 4.00; in the experiment on PA-1 it was at most 4.00; in [2] it was 5.32.

On to `Cn1c(/C=C/C(=O)c2ccccc2)cc(Br)c1Br`, for which the pIC50 with Caco-2 is at most 4.00; in the experiment on MCF7 [1] it was 4.45; in the experiment on WRL68, at most 4.00; in the experiment with PA-1, at most 4.00; in [2], at most 4.00.

As usually defined, the IC50 is the concentration that gives 50% inhibition. The molecule `COC(=O)C(NCC(=O)c1cc(Br)c(Br)[nH]1)C(C)C` (centres undefined) showed an IC50 in the experiment with HepG2 of 15.3 µg/mL.

Take `Cn1c(/C=C/C(=O)c2ccc(O)cc2O)cc(Br)c1Br`: the negative-log IC50 (pIC50) with Caco-2 was 5.45; in the experiment on MCF7 [1] it was 5.79; in the experiment on WRL68 it was 6.74; with PA-1, 6.08; in experiment [2] it was 4.92.

Take `Cn1c(-c2cc(-c3ccc[nH]3)no2)cc(Br)c1Br`: the negative logarithm of the IC50 (pIC50) in the experiment on Caco-2 is at most 4.00; in the experiment on MCF7 [1] it was at most 4.00; with WRL68 it was at most 4.00; in the experiment with PA-1 it was at most 4.00; in experiment [2], 5.51.

Regarding `O=C(/C=C/c1cc(Br)c(Br)[nH]1)c1ccccc1O`, the negative-log IC50 (pIC50) is at most 4.00 with Caco-2; 5.83 in the experiment on MCF7 [1]; 5.85 in the experiment on WRL68; 6.48 in the experiment on PA-1; at most 4.00 in experiment [2].

On to `Cn1c(-c2cc(-c3ccccc3O)no2)cc(Br)c1Br`, for which the negative-log IC50 (pIC50) in the experiment on Caco-2 was at most 4.00; in the experiment on MCF7 [1], at most 4.00; with WRL68 it was at most 4.00; in the experiment with PA-1, at most 4.00; in experiment [2], 5.61.

Take `Cn1c(/C=C/C(=O)c2ccc(Cl)cc2Cl)cc(Br)c1Br`: the negative logarithm of the IC50 (pIC50) in the experiment with Caco-2 was at most 4.00; with MCF7 [1], 5.74; in the experiment on WRL68, 4.83; in the experiment on PA-1, 6.00; in experiment [2] it was at most 4.00.

As to `COc1ccc(C(=O)/C=C/c2cc(Br)c(Br)n2C)c(OC)c1`, the pIC50 is at most 4.00 in the experiment on Caco-2; 7.10 with MCF7 [1]; 6.19 with WRL68; 6.28 in the experiment on PA-1; at most 4.00 in experiment [2].

Regarding `Oc1ccccc1-c1cc(-c2cc(Br)c(Br)[nH]2)on1`, the pIC50 in the experiment on Caco-2 is at most 4.00; with MCF7 [1] it was at most 4.00; in the experiment on WRL68, at most 4.00; in the experiment with PA-1 it was at most 4.00; in experiment [2], 4.79.

Regarding `Cn1c(/C=C/C(=O)c2cccc(O)c2)cc(Br)c1Br`, the pIC50 with Caco-2 is at most 4.00; in the experiment on MCF7 [1], 4.89; with WRL68, at most 4.00; with PA-1, at most 4.00; in experiment [2], at most 4.00.

`Nc1nc(C2CCNC(=O)c3[nH]c(Br)c(Br)c32)c[nH]1` (centres undefined) showed a negative logarithm of the IC50 (pIC50) in experiment [3] of 8.22.

`Cn1c(/C=C/C(=O)c2ccccc2O)cc(Br)c1Br`: the pIC50 was 5.50 in the experiment with Caco-2; 5.60 with MCF7 [1]; 6.48 in the experiment with WRL68; 5.90 with PA-1; 5.08 in [2].

Regarding `Cn1c(/C=C/C(=O)c2cc(O)ccc2O)cc(Br)c1Br`, the negative logarithm of the IC50 (pIC50) in the experiment with Caco-2 was at most 4.00; in the experiment with MCF7 [1], 6.49; in the experiment with WRL68, 6.06; in the experiment with PA-1, 6.42; in experiment [2] it was at most 4.00.

Consider `O=c1cc(C2CCCCC2)oc2ccccc12`, for which the negative logarithm of the IC50 (pIC50) in the experiment with HepG2 is 5.54.

Consider `O=C(/C=C/c1cc(Br)c(Br)[nH]1)c1ccccc1`, for which the pIC50 is at most 4.00 in the experiment on Caco-2; 4.91 in the experiment with MCF7 [1]; at most 4.00 in the experiment with WRL68; at most 4.00 in the experiment on PA-1; at most 4.00 in [2].

For `COc1ccc(OC)c(C(=O)/C=C/c2cc(Br)c(Br)n2C)c1`, the pIC50 was at most 4.00 with Caco-2; 6.19 in the experiment on MCF7 [1]; 5.49 in the experiment with WRL68; 6.10 in the experiment with PA-1; at most 4.00 in experiment [2].

Consider `O=C(/C=C/c1cccc(Cl)c1)c1ccccc1`, for which, in the experiment with MCF7 [4], the 50% inhibitory concentration (IC50) was determined as 5.25 µg/mL (≈ 21.6 µM).

For the molecule `COc1cc(-c2cc(-c3cc(OC)c(OC)c(OC)c3)on2)ccc1O`, the pIC50 in experiment [5] was 4.63.

As for `Cn1c(-c2cc(-c3ccccc3)no2)cc(Br)c1Br`, the pIC50 in the experiment on Caco-2 was 4.78; in the experiment on MCF7 [1] it was at most 4.00; in the experiment with WRL68, at most 4.00; with PA-1, at most 4.00; in [2], at most 4.00.

Take `COC(=O)C[C@H]1CNC(=O)c2cc(Br)c(Br)n21`: the EC50 in the experiment on P388 was determined as 30 µg/mL (≈ 82 µM).

Regarding `Cn1c(/C=C/C(=O)c2cccc(N)c2)cc(Br)c1Br`, the pIC50 is at most 4.00 in the experiment with Caco-2; 4.91 in the experiment on MCF7 [1]; at most 4.00 in the experiment on WRL68; at most 4.00 with PA-1; at most 4.00 in experiment [2].

As for `Cn1c(/C=C/C(=O)c2ccc[nH]2)cc(Br)c1Br`, the negative logarithm of the IC50 (pIC50) in the experiment with Caco-2 was at most 4.00; in the experiment with MCF7 [1], 6.35; in the experiment on WRL68, 5.68; in the experiment on PA-1, 6.14; in [2], 6.22.

`COc1ccc(C(=O)/C=C/c2cc(Br)c(Br)[nH]2)c(OC)c1`: the pIC50 with Caco-2 was at most 4.00; in the experiment with MCF7 [1] it was 7.52; with WRL68, 5.04; with PA-1 it was 6.49; in [2], at most 4.00.
